Measurements from DBAASP.
≈ marks a conversion by molar mass, not a printed value.

Tests used:
Experiment in all cases: ≥ marks a high value that may be exact or a test limit, other limits are often not marked, values filed in µg/mL are converted to µM
Escherichia coli BL21 = tested on: Escherichia coli BL21
[1] = tested on: Pseudomonas aeruginosa PAO1
[2] = tested on: Streptococcus pyogenes M1T1 5448
Acinetobacter baumannii = tested on: Acinetobacter baumannii
[3] = tested on: Bacillus cereus ATCC 11778
[4] = tested on: Enterococcus faecalis ATCC 29212
[5] = tested on: Escherichia coli ATCC 25922
Escherichia coli O157:H7 = tested on: Escherichia coli O157:H7
[6] = tested on: Listeria monocytogenes 10403s
[7] = tested on: Pseudomonas aeruginosa ATCC 27853
[8] = tested on: Salmonella enterica subsp. enterica serovar Typhimurium ATCC 13311
[9] = tested on: Shigella sonnei ATCC 11060
[10] = tested on: Staphylococcus aureus ATCC 25923
[11] = tested on: Staphylococcus epidermidis ATCC 12228
Vibrio cholerae O1 Inaba = tested on: Vibrio cholerae O1 Inaba
Escherichia coli UB1005 = tested on: Escherichia coli UB1005
[12] = tested on: Salmonella enterica subsp. enterica serovar Choleraesuis CVCC 503
[13] = tested on: Salmonella enterica subsp. enterica serovar Pullorum C79-13
[14] = tested on: Salmonella enterica subsp. enterica serovar Typhimurium ATCC 14028
[15] = tested on: Salmonella enterica subsp. enterica serovar Typhimurium C77-31
[16] = tested on: Staphylococcus aureus ATCC 29213
[17] = tested on: Staphylococcus aureus ATCC 43300
Staphylococcus aureus = tested on: Staphylococcus aureus
Streptococcus agalactiae = tested on: Streptococcus agalactiae
Escherichia coli KF111 = tested on: Escherichia coli KF111
Escherichia coli KF130 = tested on: Escherichia coli KF130
Escherichia coli = tested on: Escherichia coli
[18] = tested on: Pseudomonas aeruginosa H374
[19] = tested on: Pseudomonas aeruginosa H744
[20] = tested on: Pseudomonas aeruginosa K799
[21] = tested on: Salmonella enterica subsp. enterica serovar Typhimurium ATCC 14028s
[22] = tested on: Staphylococcus epidermidis

`CC[C@H](C)[C@H](NC(=O)[C@H](CCCCN)NC(=O)[C@H](CCCCN)NC(=O)[C@H](CCCCN)NC(=O)[C@H](CC(C)C)NC(=O)[C@H](CCCN=C(N)N)NC(=O)[C@H](CCC(N)=O)NC(=O)[C@H](Cc1ccccc1)NC(=O)[C@@H](NC(=O)[C@@H](NC(=O)[C@H](CCC(=O)O)NC(=O)[C@H](CCCCN)NC(=O)CNC(=O)[C@H](C)N)[C@@H](C)O)[C@@H](C)CC)C(=O)N[C@@H](CCC(N)=O)C(=O)N[C@@H](CCC(=O)O)C(=O)N[C@@H](CCCCN)C(=O)N[C@@H](Cc1c[nH]c2ccccc12)C(=O)N[C@@H](CCCCN)C(=O)N[C@@H](CCCN=C(N)N)C(=O)N[C@@H](C)C(=O)N[C@H](C(=O)N[C@H](C(=O)N[C@@H](C)C(=O)N[C@@H](Cc1c[nH]c2ccccc12)C(=O)O)[C@@H](C)CC)[C@@H](C)O` [AGKETIFQRLKKKIQEKWKRATIAW] showed an MIC (Escherichia coli BL21) of 1 µM (≈ 3.06 µg/mL), an MIC [1] of 16 µM (≈ 48.9 µg/mL) and an MIC [2] of 4 µM (≈ 12.2 µg/mL).

For `CC[C@H](C)[C@H](NC(=O)[C@H](CC(=O)O)NC(=O)[C@H](Cc1ccccc1)NC(=O)[C@H](CC(C)C)NC(=O)CN)C(=O)N[C@H](C(=O)N[C@@H](CCCCN)C(=O)N[C@@H](CCCCN)C(=O)N[C@H](C(=O)N[C@@H](C)C(=O)NCC(N)=O)C(C)C)C(C)C` [GLFDIVKKVAG], the MIC (Acinetobacter baumannii) was at least 218 µM, the MIC [3] was at least 218 µM and the MIC [4] was over 218 µM. It also gave an MIC [5] of over 218 µM, an MIC (Escherichia coli O157:H7) of at least 218 µM and an MIC [6] of at least 218 µM. For the same compound, the MIC [7] was over 218 µM, the MIC [8] was at least 218 µM and the MIC [9] was at least 218 µM. For the same compound, the MIC [10] was over 218 µM, the MIC [11] was over 218 µM and the MIC (Vibrio cholerae O1 Inaba) was at least 218 µM.

Work on `CC[C@H](C)[C@H](N)C(=O)N[C@@H](CS)C(=O)N[C@@H](CCCN=C(N)N)C(=O)N[C@@H](CCCCN)C(=O)N1CCC[C@H]1C(=O)N[C@H](C(=O)N[C@H](C(=O)N[C@@H](CS)C(=O)N[C@@H](CCCN=C(N)N)C(=O)N[C@@H](CCCCN)C(=O)N1CCC[C@H]1C(=O)N[C@H](C(=O)N[C@H](C(=O)N[C@@H](CS)C(=O)N[C@@H](CCCN=C(N)N)C(=O)N[C@@H](CCCCN)C(=O)N1CCC[C@H]1C(=O)N[C@H](C(=O)N[C@H](C(=O)N[C@@H](CS)C(=O)N[C@@H](CCCN=C(N)N)C(=O)N[C@@H](CCCCN)C(=O)N1CCC[C@H]1C(=O)N[C@H](C(N)=O)[C@@H](C)CC)[C@@H](C)CC)[C@@H](C)CC)[C@@H](C)CC)[C@@H](C)CC)[C@@H](C)CC)[C@@H](C)CC` [ICRKPIICRKPIICRKPIICRKPI] yielded an MIC [4] of over 64 µM, an MIC (Escherichia coli UB1005) of 2 µM (≈ 5.72 µg/mL) and an MIC [12] of 8 µM (≈ 22.9 µg/mL). It also gave an MIC [13] of 16 µM (≈ 45.8 µg/mL), an MIC [14] of 2 µM (≈ 5.72 µg/mL) and an MIC [15] of 4 µM (≈ 11.4 µg/mL). It also gave an MIC [16] of over 64 µM, an MIC [17] of over 64 µM and an MIC (Staphylococcus aureus) of over 64 µM. For the same compound, the MIC [11] was over 64 µM and the MIC (Streptococcus agalactiae) was at least 64 µM.

`CC[C@H](C)[C@H](N)C(=O)N[C@H](C(=O)N[C@@H](CS)C(=O)N[C@@H](CCCN=C(N)N)C(=O)N[C@@H](CCCCN)C(=O)N1CCC[C@H]1C(=O)N[C@H](C(=O)N[C@H](C(=O)N[C@@H](CS)C(=O)N[C@@H](CCCN=C(N)N)C(=O)N[C@@H](CCCCN)C(=O)N1CCC[C@H]1C(=O)N[C@H](C(=O)N[C@H](C(=O)N[C@@H](CS)C(=O)N[C@@H](CCCN=C(N)N)C(=O)N[C@@H](CCCCN)C(=O)N1CCC[C@H]1C(=O)N[C@H](C(=O)N[C@H](C(N)=O)[C@@H](C)CC)[C@@H](C)CC)[C@@H](C)CC)[C@@H](C)CC)[C@@H](C)CC)[C@@H](C)CC)[C@@H](C)CC` [IICRKPIICRKPIICRKPII] was tested, and the MIC [4] was over 64 µM, the MIC [5] was 4 µM (≈ 9.5 µg/mL) and the MIC (Escherichia coli UB1005) was 4 µM (≈ 9.5 µg/mL). The MIC [12] was 16 µM (≈ 38 µg/mL), the MIC [13] was at least 32 µM and the MIC [14] was 8 µM (≈ 19 µg/mL). It also gave an MIC [15] of 8 µM (≈ 19 µg/mL), an MIC [16] of over 64 µM and an MIC [17] of 64 µM (≈ 152 µg/mL). For the same compound, the MIC (Staphylococcus aureus) was over 64 µM, the MIC [11] was 64 µM (≈ 152 µg/mL) and the MIC (Streptococcus agalactiae) was at least 64 µM.

With `CC[C@H](C)[C@H](NC(=O)[C@H](CCCN=C(N)N)NC(=O)[C@H](CCCCN)NC(=O)[C@H](C)NC(=O)[C@@H](NC(=O)[C@@H](N)CCCCN)[C@@H](C)CC)C(=O)N[C@@H](Cc1c[nH]c2ccccc12)C(=O)N[C@@H](CCCCN)C(=O)N[C@H](C(=O)N[C@@H](CC(C)C)C(=O)N[C@@H](CCCN=C(N)N)C(=O)N[C@@H](CCCN=C(N)N)C(=O)N[C@@H](CCCN=C(N)N)C(=O)N[C@@H](CC(C)C)C(=O)N[C@@H](Cc1ccccc1)C(=O)N[C@@H](CCCN=C(N)N)C(=O)N[C@@H](CCCN=C(N)N)C(=O)N[C@H](C(=O)N[C@@H](CCCCN)C(=O)N[C@@H](CCCCN)C(=O)N[C@H](C(=O)N[C@@H](C)C(=O)NCC(N)=O)C(C)C)C(C)C)[C@@H](C)CC` [KIAKRIWKILRRRLFRRVKKVAG] the MIC (Acinetobacter baumannii) was 2.7 µM (≈ 7.81 µg/mL), the MIC [3] was 2.7 µM (≈ 7.81 µg/mL) and the MIC [4] was 10.8 µM (≈ 31.2 µg/mL). For the same compound, the MIC [5] was 5.4 µM (≈ 15.6 µg/mL), the MIC (Escherichia coli O157:H7) was at least 86.4 µM and the MIC [6] was 1.35 µM (≈ 3.91 µg/mL). For the same compound, the MIC [7] was 2.7 µM (≈ 7.81 µg/mL), the MIC [8] was 2.7 µM (≈ 7.81 µg/mL) and the MIC [9] was 1.35 µM (≈ 3.91 µg/mL). It also gave an MIC [10] of 5.4 µM (≈ 15.6 µg/mL), an MIC [11] of 1.35 µM (≈ 3.91 µg/mL) and an MIC (Vibrio cholerae O1 Inaba) of 2.7 µM (≈ 7.81 µg/mL).

`CC[C@H](C)[C@H](NC(=O)[C@H](C)NC(=O)[C@H](CCCCN)NC(=O)[C@H](CC(C)C)NC(=O)[C@H](C)NC(=O)[C@@H](NC(=O)[C@H](Cc1cnc[nH]1)NC(=O)[C@H](CC(C)C)NC(=O)[C@@H](NC(=O)[C@@H](NC(=O)[C@H](CCCCN)NC(=O)[C@@H](NC(=O)[C@H](C)NC(=O)[C@H](CO)NC(=O)[C@H](CCCCN)NC(=O)[C@H](Cc1ccccc1)NC(=O)[C@@H](NC(=O)[C@H](CCCCN)NC(=O)[C@H](CC(C)C)NC(=O)[C@H](Cc1ccccc1)NC(=O)[C@H](CO)NC(=O)[C@H](CCCCN)NC(=O)[C@H](Cc1c[nH]c2ccccc12)NC(=O)[C@@H](N)CCCCN)[C@@H](C)O)C(C)C)[C@@H](C)O)C(C)C)[C@@H](C)O)C(=O)N[C@@H](CO)C(=O)N[C@@H](CO)C(=O)O` [KWKSFLKTFKSAVKTVLHTALKAISS] gave an MIC (Escherichia coli KF111) of 0.342 µM (≈ 1 µg/mL), an MIC (Escherichia coli KF130) of 0.342 µM (≈ 1 µg/mL) and an MIC (Escherichia coli UB1005) of 0.171 µM (≈ 0.5 µg/mL). It also gave an MIC (Escherichia coli) of 0.171 µM (≈ 0.5 µg/mL), an MIC [7] of 4 µM (≈ 11.7 µg/mL) and an MIC [18] of 0.685 µM (≈ 2 µg/mL). For the same compound, the MIC [19] was 0.685 µM (≈ 2 µg/mL), the MIC [20] was 0.685 µM (≈ 2 µg/mL) and the MIC [21] was 1.37 µM (≈ 4 µg/mL). For the same compound, the MIC (Staphylococcus aureus) was 1.37 µM (≈ 4 µg/mL) and the MIC [22] was 1.37 µM (≈ 4 µg/mL).

Work on `CC[C@H](C)[C@H](NC(=O)[C@H](C)NC(=O)[C@H](CCCCN)NC(=O)[C@H](CC(C)C)NC(=O)[C@H](C)NC(=O)[C@@H](NC(=O)[C@H](Cc1cnc[nH]1)NC(=O)[C@H](Cc1ccccc1)NC(=O)[C@@H](NC(=O)[C@@H](NC(=O)[C@H](CCCCN)NC(=O)[C@H](C)NC(=O)[C@@H]1CCCN1C(=O)[C@H](CO)NC(=O)[C@H](CCCCN)NC(=O)[C@H](CC(C)C)NC(=O)[C@@H](NC(=O)[C@H](CCCN=C(N)N)NC(=O)[C@H](CC(C)C)NC(=O)[C@H](Cc1ccccc1)NC(=O)[C@H](CO)NC(=O)[C@H](CCCCN)NC(=O)[C@H](Cc1c[nH]c2ccccc12)NC(=O)[C@@H](N)CCCCN)[C@@H](C)O)[C@@H](C)O)C(C)C)[C@@H](C)O)C(=O)N[C@@H](CO)C(=O)N[C@@H](CO)C(=O)O` [KWKSFLRTLKSPAKTVFHTALKAISS] yielded an MIC (Escherichia coli KF111) of 0.339 µM (≈ 1 µg/mL), an MIC (Escherichia coli KF130) of 0.339 µM (≈ 1 µg/mL) and an MIC (Escherichia coli UB1005) of 0.17 µM (≈ 0.5 µg/mL). For the same compound, the MIC (Escherichia coli) was 0.17 µM (≈ 0.5 µg/mL), the MIC [18] was 2.72 µM (≈ 8 µg/mL) and the MIC [19] was 2.72 µM (≈ 8 µg/mL). It also gave an MIC [20] of 5.43 µM (≈ 16 µg/mL), an MIC [21] of 1.36 µM (≈ 4 µg/mL) and an MIC (Staphylococcus aureus) of 10.9 µM (≈ 32 µg/mL). The MIC [22] was 1.36 µM (≈ 4 µg/mL).
